Results: US20070178045A1, “Cyclopeptide derivatives with anti-integrin activity” (priority 2004, published 2007)
“And” between values parts separate entries of the source, which are not always exact repeats. Identical values can stand only once.

Key:
purified αvβ3 receptor = biological target: T1, purified αvβ3 receptor (Homo sapiens, UniProt P05106+P06756); test: Binding to integrin αvβ3 receptors ([125I]echistatin competition); conditions: inhibition of [125I]echistatin 0.05 nM binding to purified αvβ3 receptor; read-out: αvβ3 IC50 ± SD
T1 construct: purchased Chemicon CC1020
Experimental: Binding to Integrin αvβ3 Receptors
(§1) An aliquot of 100 μl was added to 96-well plates and incubated overnight at +4° C. Plates were washed once with buffer (50 mM Tris, pH 7.4, 100 mM NaCl, 2 mM CaCl2, 1 mM MgCl2, 1 mM MnCl2, 1% bovine serum albumin) and then incubated for another 2 hours at room temperature. Plates were washed twice with the same buffer and incubated for 3 hours at room temperature with the radioactive ligand [^125I]echistatin (Amersham Pharmacia Biotech) 0.05 nM in the presence of competition ligands. At the end of incubation, the wells were washed and the radioactivity determined using a gamma counter (Packard). Non-specific binding of the ligand was determined in the presence of excess cold echistatin (1 μM).
(§2) Evaluation of IC50 Parameters
(§3) The IC50 parameter was elaborated using “ALLFIT” software.

purified αvβ5 receptor = biological target: T2, purified αvβ5 receptor (Homo sapiens, UniProt P06756+P18084); test: Binding to integrin αvβ5 receptors ([125I]echistatin competition); conditions: inhibition of [125I]echistatin 0.15 nM binding to purified αvβ5 receptor; read-out: αvβ5 IC50 ± SD
T2 construct: purchased Chemicon CC1020
Experimental: Binding to Integrin αvβ5 Receptors
as §1, with “0.15” for “0.05”, “Non-specific ligand” for “Non-specific”, “binding” for “binding of the ligand”
as §2, §3

[1] = tested on: PC3 prostate carcinoma cells; format: cell-based, human; conditions: read-out: PC3 IC50, μM 3 h of treatm., cell adhesion to vitronectin, PC3 low levels of both integrins
Experimental: (§4) Adhesion Assay of Tumor Cells on Vitronectin
(§5) A2780 human ovarian carcinoma and PC3 prostate carcinoma cells were grown in RPMI 1640 containing 10% fetal bovine serum and 50 μg/ml gentamycin sulfate. A498 human renal carcinoma were grown in EMEM containing 10% fetal bovine serum and 50 μg/ml gentamycin sulfate. All the cells were maintained in a 37° C. incubator with saturated humidity and an atmosphere of 95% air and 5% CO2.
(§6) A2780 cell line expresses high levels of αvβ5 integrins, A498 high levels of αvβ3 integrins, and PC3 low levels of both integrins.
To test the effect of the drugs on cell adhesion, the appropriate cellular density (40000-50000 cells/well) for each tumor cell line was incubated with different concentrations of the compounds in 96-well tissue culture plates coated with vitronectin (5 μg/ml) and was allowed to attach for 3 hours. After this time the cells were washed once with PBS containing Ca^2+ e Mg^2+. Tumor cells were fixed with 4% paraformaldehyde for 10 min at room temperature and stained with 1% toluidine blue for 10 min at room temperature. […] The number of adherent cells was determined in a microplate reader (Victor2, EG&G Wallac) at 600 nm.
(§7) An IC50 value as parameter to measure the inhibiting effect of the molecules on tumor cell adhesion to vitronectin was evaluated using “ALLFIT” computer program.

[2] = tested on: A498 human renal carcinoma; format: cell-based; conditions: read-out: A498 IC50, μM 3 h of treatm., cell adhesion to vitronectin, A498 high levels of αvβ3 integrins
Experimental: as §4, §5, §6
(§8) To test the effect of the drugs on cell adhesion, the appropriate cellular density (40000-50000 cells/well) for each tumor cell line was incubated with different concentrations of the compounds in 96-well tissue culture plates coated with vitronectin (5 μg/ml) and was allowed to attach for 3 hours. After this time the cells were washed once with PBS containing Ca^2+ e Mg^2+. Tumor cells were fixed with 4% paraformaldehyde for 10 min at room temperature and stained with 1% toluidine blue for 10 min at room temperature. Tumor cells were washed with bi-distilled water, dried and solubilized with 1% SDS. The number of adherent cells was determined in a microplate reader (Victor2, EG&G Wallac) at 600 nm.
as §7

[3] = tested on: A2780 human ovarian carcinoma; format: cell-based; conditions: read-out: A2780 IC50, μM 3 h of treatm., cell adhesion to vitronectin, A2780 high levels of αvβ5 integrins
Experimental: as §4, §5, §6, §8, §7

IC50 (purified αvβ3 receptor)	IC50 (purified αvβ5 receptor) [µM]	SMILES	IC50 [1] [µM]	IC50 [2] [µM]	IC50 [3] [µM]
0.0017 µM	0.0034 ± 0.0001	N=C(N)NCCC[C@@H]1NC(=O)[C@H](Cc2ccc(CN)cc2)NC(=O)[C@@H](Cc2ccccc2)NC(=O)[C@H](CC(=O)O)NC(=O)CNC1=O [ST2581, c(Arg-Gly-Asp-D-Phe-Amp)]	–	–	–
0.007 µM and 0.0072 µM	0.00099	CN1C(=O)[C@@H](Cc2ccccc2)NC(=O)[C@H](CC(=O)O)NC(=O)CNC(=O)[C@H](CCCNC(=N)N)NC(=O)[C@@H]1Cc1ccc(CN)cc1 [ST2700, c(Arg-Gly-Asp-D-Phe-N-Me-Amp)]	–	–	–
0.0367 ± 0.0007 µM	0.0029 ± 0.0001	N=C(N)NCCC[C@@H]1NC(=O)CN(Cc2ccc(CN)cc2)C(=O)[C@@H](Cc2ccccc2)NC(=O)[C@H](CC(=O)O)NC(=O)CNC1=O [ST2701, c(Arg-Gly-Asp-D-Phe-N-Amb-Gly)]	–	–	–
0.03 ± 0.0009 µM	0.034 ± 0.0014	CC(C)[C@H]1C(=O)N[C@@H](CCCNC(=N)N)C(=O)NCC(=O)N[C@@H](CC(=O)O)C(=O)N[C@H](Cc2ccccc2)C(=O)N1CCCCCC(=O)O [ST2956, c[Arg-Gly-Asp-D-Phe-N(carboxypentilene)-Val)]]	–	–	–
0.0422 ± 0.0007 µM	0.0383 ± 0.0013	C=CCOC(=O)CCCCCN1C(=O)[C@@H](Cc2ccccc2)NC(=O)[C@H](CC(=O)O)NC(=O)CNC(=O)[C@H](CCCNC(=N)N)NC(=O)[C@@H]1C(C)C [ST2957, c[Arg-Gly-Asp-D-Phe-N(allyloxycarbonylpentilene)-Val]]	–	–	–

Continued, compound first:

SMILES	IC50 (purified αvβ3 receptor)	IC50 (purified αvβ5 receptor) [µM]	IC50 [1] [µM]	IC50 [2] [µM]	IC50 [3] [µM]
COCCOCCOCCOCC(=O)NCc1ccc(C[C@@H]2NC(=O)[C@@H](Cc3ccccc3)NC(=O)[C@H](CC(=O)O)NC(=O)CNC(=O)[C@H](CCCNC(=N)N)NC2=O)cc1 [ST2597, c[Arg-Gly-Asp-D-Phe-Amp(CO—CH2—(OCH2CH2)3—OCH3)]]	0.0135 ± 0.0008 µM	0.0021 ± 7e-05	–	–	–
N=C(N)NCCC[C@@H]1NC(=O)[C@H](Cc2ccc(CNC(=O)CCC(=O)O)cc2)NC(=O)[C@@H](Cc2ccccc2)NC(=O)[C@H](CC(=O)O)NC(=O)CNC1=O [ST2649, c[Arg-Gly-Asp-D-Phe-Amp-(CH2)2COOH]]	0.0376 ± 0.0009 µM	0.0051 ± 7e-05	33.7 ± 7.8	34 ± 2.2	9.5 ± 1.9
N=C(N)NCCC[C@@H]1NC(=O)[C@H](Cc2ccc(CNC(=O)COCCOCCOCC(=O)O)cc2)NC(=O)[C@@H](Cc2ccccc2)NC(=O)[C@H](CC(=O)O)NC(=O)CNC1=O [ST2661, c[Arg-Gly-Asp-D-Phe-Amp-(CO—CH2—(O—CH2—CH2)2—O—CH2—COOH]]	–	–	18.8 ± 4.4	10.7 ± 0.4	12.3 ± 0.9
